Measured values as given in ChEMBL document CHEMBL1123446, “Amino-substituted p-benzoquinones” (1986).

Legend:
Homo sapiens = organism: Homo sapiens; assay: In vitro significant inhibitory activity against human colon […]; type: functional; conditions: read-out: ID50 (the source's name)
L1210 = assay: In vitro significant inhibitory activity against L1210 leukemia cell lines; type: functional; conditions: Mus musculus, read-out: ID50 (the source's name)

| IC50 (Homo sapiens) | IC50 (L1210) | Compound |
| --- | --- | --- |
| 140 nM | – | CN(C)Cc1ccc(NC2=C(Br)C(=O)C(Nc3ccc(CN(C)C)cc3)=C(Br)C2=O)cc1 |
| 100 nM | 37 nM | CN(C)Cc1ccc(NC2=C(Cl)C(=O)C(Nc3ccc(CN(C)C)cc3)=C(Cl)C2=O)cc1 |
| 80 nM | – | CO[C@H](C(=O)[C@@H](O)[C@@H](C)O)[C@@H]1Cc2cc3cc(O[C@H]4C[C@@H](O[C@@H]5C[C@@H](O)[C@H](O)[C@@H](C)O5)[C@H](O)[C@@H](C)O4)c(C)c(O)c3c(O)c2C(=O)[C@H]1O[C@H]1C[C@@H](O[C@@H]2C[C@@H](O)[C@@H](O[C@@H]3C[C@](C)(O)[C@H](O)[C@@H](C)O3)[C@@H](C)O2)[C@H](O)[C@@H](C)O1 [PLICAMYCIN] |
